# Experimental data: patent US4221907A, “Substituted O-α-D and O-β-D-multi-galactopyranosyl and glucopyranosyl 1→4 and 1→6 galactopyranosyl 1→6 α-D-glucopyranoses” (American Cyanamid Company, priority 1979, dated 1980)
# Counter-ions that a name gives are not always drawn.
# Legend:
# complement system = conditions: reported, British Journal of Experimental Pathology, 33, 327-339 (1952); cited from earlier work
# human complement (C3-C9) = test: Test Code 035 (C3-C9 inhibitor): lysis of EAC 142 by late components of human complement; type: biochemical; conditions: activity in wells, twofold serial dilution; higher well number indicates higher activity
# From the text: (§1) An active inhibitor protects C2 from C1 and C4; (ii) Test Code 035 (C3-C9 inhibitor)--This test determines the ability of the late components of human complement (C3-C9) to lyse EAC 142 in the presence of appropriate dilutions of the test compound. An active inhibitor protects EAC 142 from lysis by human C3-C9; (iii) Test Code 036 (C-Shunt inhibitor)--In this test human erythrocytes rendered fragile are lysed in autologous serum via the shunt pathway activated by cobra venom factor in the presence of appropriate dilutions of the test compound. Inhibition of the shunt pathway results in failure of lysis; (iv) Forssman Vasculitis Test--Here, the well known complement dependent lesion, Forssman vasculitis, is produced in guinea pigs by intradermal injection of rabbit anti-Forssman antiserum. The lesion is measured in terms of diameter, edema and hemorrhage and the extent to which a combined index of these is inhibited by prior intraperitoneal injection of the test compound at 200 mg/kg is then reported, unless otherwise stated; (v) Forssman Shock Test--Lethal shock is produced in guinea pigs by an i.v. injection of anti-Forssman antiserum and the harmonic mean death time of treated guinea pigs is compared with that of the simultaneous controls; (vi) Complement Level Reduction Test--In this test, the above dosed guinea pigs, or others are bled for serum and the complmenet level is determined in undiluted serum by the capillary tube method of U.S. Pat. No. 3,876,376 and compared to undosed control guinea pigs; (vii) Cap 50 Test--Here, appropriate amounts of the test compound are added to a pool of guinea pig serum in vitro, after which the undiluted serum capillary tube assay referred to above is run. The concentration of compound inhibiting 50% is reported.
# (§2) **Activity in wells, a serial dilution assay; higher well number indicate
# (§3) higher activity. The serial dilutions are twofold-
# whole complement = test: In vivo activity (Guinea Pig): serum whole complement by capillary tube assay after dosing; conditions: Intraperitoneal, 200 mg/kg
# shunt pathway = test: Test Code 036 (C-Shunt inhibitor): lysis of human erythrocytes in autologous serum via shunt pathway activated by cobra venom factor; type: biochemical; conditions: activity in wells, twofold serial dilution; higher well number indicates higher activity
# From the text: as §1, §2, §3
# human C1 = human C1 (Homo sapiens, UniProt P09871); test: Test Code 026 (C1 inhibitor): activated human C1 destroys fluid phase human C2 in presence of C4; type: biochemical; conditions: activity in wells, twofold serial dilution; higher well number indicates higher activity
# Sequence of human C1 (P09871 16-688): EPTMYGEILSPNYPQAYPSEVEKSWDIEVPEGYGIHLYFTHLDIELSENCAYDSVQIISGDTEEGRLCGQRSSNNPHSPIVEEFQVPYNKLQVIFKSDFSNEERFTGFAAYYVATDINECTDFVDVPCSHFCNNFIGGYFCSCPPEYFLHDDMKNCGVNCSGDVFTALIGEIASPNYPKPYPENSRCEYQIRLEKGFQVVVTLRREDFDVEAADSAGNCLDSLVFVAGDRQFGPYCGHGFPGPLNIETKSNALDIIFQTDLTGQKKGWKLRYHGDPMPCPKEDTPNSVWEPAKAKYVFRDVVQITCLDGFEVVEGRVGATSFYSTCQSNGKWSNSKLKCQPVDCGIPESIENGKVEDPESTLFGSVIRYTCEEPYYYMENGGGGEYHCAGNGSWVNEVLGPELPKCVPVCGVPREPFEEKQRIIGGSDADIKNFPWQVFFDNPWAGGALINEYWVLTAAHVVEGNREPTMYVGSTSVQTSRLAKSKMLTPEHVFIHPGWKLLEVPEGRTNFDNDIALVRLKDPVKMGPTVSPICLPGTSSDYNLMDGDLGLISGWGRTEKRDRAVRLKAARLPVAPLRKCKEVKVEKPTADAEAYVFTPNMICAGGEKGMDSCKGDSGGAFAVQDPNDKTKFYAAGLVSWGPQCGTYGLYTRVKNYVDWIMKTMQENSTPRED
# Sequence of human C1 (P00736 18-705 partner): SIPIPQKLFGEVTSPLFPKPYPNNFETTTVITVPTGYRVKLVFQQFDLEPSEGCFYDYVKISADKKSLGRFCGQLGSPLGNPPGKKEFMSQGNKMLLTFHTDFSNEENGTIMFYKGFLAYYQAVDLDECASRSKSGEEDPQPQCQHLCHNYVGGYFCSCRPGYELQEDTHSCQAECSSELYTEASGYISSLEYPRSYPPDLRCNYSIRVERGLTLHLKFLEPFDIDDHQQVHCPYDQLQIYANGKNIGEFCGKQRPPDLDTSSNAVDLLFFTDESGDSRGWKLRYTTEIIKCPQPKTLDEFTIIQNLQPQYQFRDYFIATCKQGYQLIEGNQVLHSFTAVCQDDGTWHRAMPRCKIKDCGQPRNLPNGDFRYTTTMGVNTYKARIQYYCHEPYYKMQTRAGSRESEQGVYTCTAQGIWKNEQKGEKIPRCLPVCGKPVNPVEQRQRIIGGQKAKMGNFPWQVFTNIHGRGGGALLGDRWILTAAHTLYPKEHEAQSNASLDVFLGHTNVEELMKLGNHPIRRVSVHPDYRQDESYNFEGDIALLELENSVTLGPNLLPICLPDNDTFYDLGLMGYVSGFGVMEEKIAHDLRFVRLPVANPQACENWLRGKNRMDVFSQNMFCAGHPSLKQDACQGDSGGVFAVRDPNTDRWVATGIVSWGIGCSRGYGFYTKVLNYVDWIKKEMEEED
# Sequence of human C1 (P02745 23-245 partner): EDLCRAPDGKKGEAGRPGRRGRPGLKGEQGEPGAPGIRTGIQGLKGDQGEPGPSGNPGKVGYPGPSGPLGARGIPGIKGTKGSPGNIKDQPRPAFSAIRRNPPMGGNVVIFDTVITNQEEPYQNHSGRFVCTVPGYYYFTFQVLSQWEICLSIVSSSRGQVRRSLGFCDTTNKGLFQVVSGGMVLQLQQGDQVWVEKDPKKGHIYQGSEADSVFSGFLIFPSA
# Sequence of human C1 (P02746 28-253 partner): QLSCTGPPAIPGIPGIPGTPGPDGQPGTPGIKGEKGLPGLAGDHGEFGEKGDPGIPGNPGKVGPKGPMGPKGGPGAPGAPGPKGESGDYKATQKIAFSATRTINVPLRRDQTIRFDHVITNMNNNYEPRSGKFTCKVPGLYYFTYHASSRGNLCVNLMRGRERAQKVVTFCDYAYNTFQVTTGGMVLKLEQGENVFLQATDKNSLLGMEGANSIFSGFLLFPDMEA
# Sequence of human C1 (P02747 29-245 partner): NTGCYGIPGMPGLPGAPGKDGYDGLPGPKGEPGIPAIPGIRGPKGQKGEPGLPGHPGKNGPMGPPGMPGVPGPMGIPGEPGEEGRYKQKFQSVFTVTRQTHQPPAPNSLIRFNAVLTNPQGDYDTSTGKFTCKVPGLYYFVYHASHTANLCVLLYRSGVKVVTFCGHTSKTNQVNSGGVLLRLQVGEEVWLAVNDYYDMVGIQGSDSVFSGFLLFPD
# From the text: as §1, §2, §3
# [1] = tested on: hereditary angio-neurotic edema; conditions: reported in the literature; cited from earlier work
# [2] = tested on: total hemolytic complement activity; conditions: in vitro and in vivo, as judged by reduction in total hemolytic complement activity; cited from earlier work
Compound,C-Late 035 Wells (human complement (C3-C9)),Shunt Inhibition 036 Wells (shunt pathway),C1 026 Wells (human C1),other results
"Nc1ccc2cc(S(=O)(=O)[O-])cc(O)c2c1N=Nc1ccc(NC(=O)Nc2ccc(N=Nc3c(N)ccc4cc(S(=O)(=O)[O-])cc(O)c34)c(S(=O)(=O)[O-])c2)cc1S(=O)(=O)[O-].[Na+].[Na+].[Na+].[Na+] [chlorazol fast pink, 3,3'-ureylenebis[6-(2-amino-8-hydroxy-6-sulfo-1-naphthylazo)benzenesulfonic acid], tetrasodium salt]",,,,anticomplementary effect (complement system): anticomplementary effect
"O=S(=O)(O)OC[C@H]1O[C@H](OC[C@H]2O[C@@H](OC[C@H]3O[C@H](OC[C@H]4O[C@H](OS(=O)(=O)O)[C@H](OS(=O)(=O)O)[C@@H](OS(=O)(=O)O)[C@@H]4OS(=O)(=O)O)[C@H](OS(=O)(=O)O)[C@@H](OS(=O)(=O)O)[C@H]3OS(=O)(=O)O)[C@H](OS(=O)(=O)O)[C@@H](OS(=O)(=O)O)[C@@H]2OS(=O)(=O)O)[C@H](OS(=O)(=O)O)[C@@H](OS(=O)(=O)O)[C@H]1OS(=O)(=O)O [drawing 9, O-α-D-galactopyranosyl(1→6)-O-β-D-glucopyranosyl(1→6)-O-α-D-galactopyranosyl(1→6)-α-D-glucopyranose [gal 1α,6 glc 1β,6 gal 1α,6 glc] tetradecakis (H-sulfate), tetradecasodium salt]",+1 Wells,+6 Wells,+9 Wells,In vivo Activity (Guinea Pig) % Inhibition (whole complement; 30 min): -44%; In vivo Activity (Guinea Pig) % Inhibition (whole complement; 60 min): -55%; In vivo Activity (Guinea Pig) % Inhibition (whole complement; 120 min): -80%
"O=S(=O)(O)OC[C@H]1O[C@@H](OC[C@H]2O[C@H](OC[C@H]3OC(OS(=O)(=O)O)[C@H](OS(=O)(=O)O)[C@@H](OS(=O)(=O)O)[C@@H]3OS(=O)(=O)O)[C@H](OS(=O)(=O)O)[C@@H](OS(=O)(=O)O)[C@H]2OS(=O)(=O)O)[C@H](OS(=O)(=O)O)[C@@H](OS(=O)(=O)O)[C@@H]1O[C@H]1O[C@H](COS(=O)(=O)O)[C@@H](OS(=O)(=O)O)[C@H](OS(=O)(=O)O)[C@H]1OS(=O)(=O)O (stereo partly drawn) [drawing 11, O-α-D-glucopyranosyl(1→4)-O-β-D-glucopyranosyl(1→6)-O-α-D-galactopyranosyl(1→6)-D-glucopyranose [glc 1α,4 glc 1β,6 gal 1α,6 glc] tetradecakis (H-sulfate), tetradecasodium salt]",+1 Wells,+6 Wells,+10 Wells,In vivo Activity (Guinea Pig) % Inhibition (whole complement; 30 min): -54%; In vivo Activity (Guinea Pig) % Inhibition (whole complement; 60 min): -45%; In vivo Activity (Guinea Pig) % Inhibition (whole complement; 120 min): -39%
"O=S(=O)(O)OC[C@H]1O[C@@H](OC[C@H]2O[C@H](OC[C@H]3OC(OS(=O)(=O)O)[C@H](OS(=O)(=O)O)[C@@H](OS(=O)(=O)O)[C@@H]3OS(=O)(=O)O)[C@H](OS(=O)(=O)O)[C@@H](OS(=O)(=O)O)[C@H]2OS(=O)(=O)O)[C@H](OS(=O)(=O)O)[C@@H](OS(=O)(=O)O)[C@@H]1O[C@H]1O[C@H](COS(=O)(=O)O)[C@@H](O[C@H]2O[C@H](COS(=O)(=O)O)[C@@H](O[C@H]3O[C@H](COS(=O)(=O)O)[C@@H](O[C@H]4O[C@H](COS(=O)(=O)O)[C@@H](O[C@H]5O[C@H](COS(=O)(=O)O)[C@@H](O[C@H]6O[C@H](COS(=O)(=O)O)[C@@H](OS(=O)(=O)O)[C@H](OS(=O)(=O)O)[C@H]6OS(=O)(=O)O)[C@H](OS(=O)(=O)O)[C@H]5OS(=O)(=O)O)[C@H](OS(=O)(=O)O)[C@H]4OS(=O)(=O)O)[C@H](OS(=O)(=O)O)[C@H]3OS(=O)(=O)O)[C@H](OS(=O)(=O)O)[C@H]2OS(=O)(=O)O)[C@H](OS(=O)(=O)O)[C@H]1OS(=O)(=O)O (stereo partly drawn) [drawing 16, O-α-D-glucopyranosyl(1→4)-O-α-D-glucopyranosyl(1→4)-O-α-D-glucopyranosyl(1→4)-O-α-D-glucopyranosyl(1→4)-O-α-D-glucopyranosyl(1→4)-O-α-D-glucopyranosyl(1→4)-O-β-D-glucopyranosyl(1→6)-O-α-D-galactopyranosyl(1→6)-D-glucopyranose [(glc 1α,4)6 glc 1β,6 gal 1α,6 glc] nonacosakis (H-sulfate), non-acosasalt with trimethylamine]",+1 Wells,+5 Wells,+10 Wells,
"O=S(=O)(O)OC[C@H]1O[C@@H](OC[C@H]2O[C@H](OC[C@H]3OC(OS(=O)(=O)O)[C@H](OS(=O)(=O)O)[C@@H](OS(=O)(=O)O)[C@@H]3OS(=O)(=O)O)[C@H](OS(=O)(=O)O)[C@@H](OS(=O)(=O)O)[C@H]2OS(=O)(=O)O)[C@H](OS(=O)(=O)O)[C@@H](OS(=O)(=O)O)[C@@H]1O[C@H]1O[C@H](COS(=O)(=O)O)[C@@H](O[C@H]2O[C@H](COS(=O)(=O)O)[C@@H](O[C@H]3O[C@H](COS(=O)(=O)O)[C@@H](O[C@H]4O[C@H](COS(=O)(=O)O)[C@@H](O[C@H]5O[C@H](COS(=O)(=O)O)[C@@H](O[C@H]6O[C@H](COS(=O)(=O)O)[C@@H](OS(=O)(=O)O)[C@H](OS(=O)(=O)O)[C@H]6OS(=O)(=O)O)[C@H](OS(=O)(=O)O)[C@H]5OS(=O)(=O)O)[C@H](OS(=O)(=O)O)[C@H]4OS(=O)(=O)O)[C@H](OS(=O)(=O)O)[C@H]3OS(=O)(=O)O)[C@H](OS(=O)(=O)O)[C@H]2OS(=O)(=O)O)[C@H](OS(=O)(=O)O)[C@H]1OS(=O)(=O)O (stereo partly drawn) [drawing 17, O-α-D-glucopyranosyl(1→4)-O-α-D-glucopyranosyl(1→4)-O-α-D-glucopyranosyl(1→4)-O-α-D-glucopyranosyl(1→4)-O-α-D-glucopyranosyl(1→4)-O-α-D-glucopyranosyl(1→4)-O-β-D-glucopyranosyl(1→6)-O-α-D-galactopyranosyl(1→6)-D-glucopyranose [(glc 1α,4)6 glc 1β,6 gal 1α,6 glc] nonacosakis (H-sulfate), non-acosasodium salt]",+3 Wells,+5 Wells,+9 Wells,
NCCCCCC(=O)O [epsilon-aminocaproic acid],,,,treatment of hereditary angio-neurotic edema [1]: used with success
NC[C@H]1CC[C@H](C(=O)O)CC1 [tranexamic acid],,,,treatment of hereditary angio-neurotic edema [1]: used with success
heparin,,,,anticomplementary effect (complement system): anticomplementary effect
pentosan-polysulfoester,,,,"anticomplementary activity on human serum [2]: anticomplementary activity on human serum, both in vitro and in vivo"
